In US20180217128A1, “METHOD FOR MEASURING IN VIVO INHIBITION OF INTRACELLULAR RNASE” (NATIONAL INSTITUTE OF ADVANCED INDUSTRIAL SCIENCE AND …, priority 2015, published 2018):

Legend:
[1] = system: intracellular ribonuclease in HEK 293 cells; assay: Evaluation of harmfulness to cells using fluorescently labeled double-stranded RNA (intracellular RNA degradation, FRET fluorescence); conditions: Mercury II Chrolide 100 ng/ml
Source text: That is, the present inventors designed and prepared a double-stranded RNA comprising an RNA strand labeled with a fluorescent dye A that emits fluorescence, and an RNA strand labeled with a fluorescent dye B that quenches emission from a fluorescent dye in the vicinity thereof. When the double-stranded RNA is in a double-stranded state, the fluorescence is in a quenched state due to occurrence of fluorescence resonance energy transfer (FRET) (Non-patent Document 4) between the two kinds of fluorescent dyes.
[…] After mixing, each reaction liquid was incubated at room temperature for 20 minutes, and then added to HEK 293 cells (2×10^5 cells/ml in 96 well plate), which are human cells. From Hour 0 to Hour 8, fluorescence was measured at 519 nm with excitation at 488 nm using a Microplate Reader SH-9000 (Corona Electric) at one-hour intervals. The experiment was carried out for n=3.
The result obtained by dividing the fluorescence values at Hours 1 to 8 by the fluorescence value at Hour 0 is shown in FIG. 5.
As reaction liquids, systems each containing 50 μL of Opti-MEM (Life Technologies), 1 μL of Lipofectamine 2000 (Life Technologies), 200 nM double-stranded RNA (the same RNA as in Example 1), and 0 ng/ml, 1 ng/ml, 100 ng/ml, or 100 μg/ml Cisplatin (Wako) were provided. […]

[2] = target: T1, Ribonuclease (DNase free) Solution (ribonuclease; RNase) (Bos taurus, UniProt P61823); assay: Degradation of the fluorescently labeled double-stranded RNA (FRET probe) by ribonuclease, cell-free; format: biochemical; design: purchased Nippon Gene; conditions: 200 nM double-stranded RNA in Opti-MEM, 0.4 mg/ml RNase, room temperature 1 hour, vs no RNase, n=3
T1 sequence (P61823 27-150): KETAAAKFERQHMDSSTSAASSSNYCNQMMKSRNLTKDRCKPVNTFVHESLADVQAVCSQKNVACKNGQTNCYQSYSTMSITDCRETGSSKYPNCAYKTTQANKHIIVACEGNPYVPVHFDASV
Source text: First, FRET-Alexa-RNA: 5′-(Alexa Flour 488)-[…]-3′ (SEQ ID NO: 1) as a reporter strand, and FRET-BHQ1-RNA: (5′-[…]-(BHQ1)-3′ (SEQ ID NO:2) as a quencher strand were provided. The base at the 5′ end of the reporter strand is labeled with Alexa Flour 488 through a C6 linker, and the base at the 3′ end of the quencher strand is labeled with BHQ1 (Black Hole Quencher 1) without use of a linker (FIG. 2).
The reporter strand and the quencher strand were mixed at a ratio of 1:2 (molar ratio) in a solution of 50 mM HEPES, 500 mM KCl, and 25 mM MgCl2, and the resulting solution was incubated at 99° C. for 5 minutes, at 65° C. for 30 minutes, and then at 25° C. for 30 minutes to prepare a double-stranded RNA.
The experiment was carried out for n=3.

[3] = target: T1, Ribonuclease (DNase free) Solution (ribonuclease; RNase); conditions: 100 μM hydrogen peroxide
Experimental: In this experiment, how hydrogen peroxide influences the fluorescently labeled double-stranded RNA and a Ribonuclease (DNase free) Solution (ribonuclease; RNase) (Nippon Gene) was investigated.
A reaction liquid containing 200 nM double-stranded RNA in Opti-MEM (Life Technologies) (50 μL) was provided, and fluorescence was measured at 519 nm with excitation at 488 nm using a Microplate Reader SH-9000 (Corona Electric) (the result at Hour 0). Thereafter, systems in each of which hydrogen peroxide was added at 0 or 100 μM, and Ribonuclease (DNase free) Solution (ribonuclease; RNase) (Nippon Gene) was added at 0 or 0.4 mg/ml, were provided, and each system was incubated at room temperature for 1, 2, or 4 hours, followed by measurement of fluorescence at 519 nm with excitation at 488 nm using a Microplate Reader SH-9000 (the result at Hour 1, 2, or 4). The experiment was carried out for n=3.
The result obtained by dividing the fluorescence value at Hour 1, 2, or 4 by the fluorescence value at Hour 0 is shown in FIG. 4.

HEK 293 cells = conditions: hydrogen peroxide 0.01, 1 or 100 μM, measured at Hour 2, 4, 6, 8, n=3
Experimental: The viable cell count was determined by the absorbance using a Cell Counting Kit-8 (Dojindo).
The cell systems at Hour 2, 4, 6, and 8 were subjected to measurement of the absorbance at 450 nm using a Cell Counting Kit-8 (Dojindo) and a Microplate Reader SH-9000 (Corona Electric) to determine the viable cell count. The experiment was carried out for n=3.

**Q.** What does the source list for `[Cl][Hg][Cl]` [Mercury II Chrolide]?
**A.** concentration dependence of the suppression of the fluorescence increase ([1]; 10 μg/ml or 1 mg/ml): dependent on the Mercury II Chrolide concentration; increase in the fluorescence value with time (Hours 1 to 8 divided by Hour 0) ([1]; 10 μg/ml or 1 mg/ml vs 0 ng/ml, Hour 0 to 8, n=3): suppressed

**Q.** How did the “fluorescence intensity (fluorescence value at Hour 1 divided by value at Hour 0) on addition of RNase” value [2] turn out when “fluorescently labeled double-stranded RNA: Double-stranded RNA of FRET-Alexa-RNA reporter strand (SEQ ID NO: 1, Alexa Flour 488) and FRET-BHQ1-RNA quencher strand (SEQ ID NO: 2) (sense CAUAAUCCACCUCCCACUAUUCC; antisense GGAAUAGUGGGAGGUGGAUUAUG; RNA, backbone not given here; Alexa Fluor 488 on reporter, BHQ1 on quencher)” was run?
**A.** Its value is “obviously increased”.

**Q.** With `OO` [hydrogen peroxide] as the compound, how does the “fluorescence value (Hour 1, 2 or 4 divided by Hour 0) of system with RNase, compared with RNase system” value ([3]; 200 nM double-stranded RNA, 0.4 mg/ml RNase, room temperature, n=3) read?
**A.** The value was “almost the same”.

**Q.** And the “fluorescence value (Hour 1, 2 or 4 divided by Hour 0) of system without RNase, vs system with neither RNase nor hydrogen peroxide” value ([3]; 200 nM double-stranded RNA, no RNase, room temperature, n=3)?
**A.** The value was “almost the same”.

**Q.** And the “influence on fluorescence value of the RNA FRET Probe and on RNase activity (cell-free)” value ([3]; cell-free, 1-4 hours)?
**A.** The value was “influences neither the fluorescence value of the RNA FRET Probe nor the RNase activity”.

**Q.** And the “time at which a decrease in the absorbance (relative to 0 μM taken as 1) was first found” value (HEK 293 cells)?
**A.** Its value is 8 h.
